Reference: US20240299595A1, “CANCER THERANOSTIC COMPOSITIONS COMPRISING BIGUANIDE COMPLEXES OF GROUP 7 TRANSITION METALS AND USES THEREOF” (BOARD OF REGENTS, THE UNIVERSITY OF TEXAS SYSTEM, priority 2021, published 2024)

Columns and labels:
[1] = system: AMPK; experiment: AMPK and AMPK phosphoprotein western blotting; assay type: cell-based; details: 24 hours
Description: R-actin was used as a loading control. Cells were treated with phenformin or Re-Phenformin overnight at the indicated concentrations for 24 hours.
(§1) AMPK is a key enzyme that becomes activated under nutrient stress. Annexin V/PI double staining kit was used to detected cell death in flow cytofluorimetric analyses. […] In Kras* cell line, cells died largely of necrosis; in MiaPaca-2 cell line, cells died mostly of apoptosis.

[2] = system: normal cells (RAW264.7, NIH3T3, hTERT-HPNE); experiment: MTT cytotoxicity against normal cells; assay type: cell-based; details: 72 hours
Description: Next, RAW264.7 (FIG. 14A), NIH3T3 (FIG. 14B), or hTERT-HPNE (FIG. 14C) cells were seeded in 96-well plates (5000 cells/well) overnight, and treated with Re-Phen or phenformin in concentrations ranging from 4.57×10−4 mM to 1.0 mM at 37° C. for 72 hours. Cell viability was measured using the MTT assay. The proportion of cells was normalized to that of untreated cells and expressed as mean±standard error of the mean (SEM) (n=5). The half-maximal inhibitory concentration (IC50) values were calculated by a sigmoidal dose-response (variable slope) curve-fitting using GraphPad Prism software.

[3] = system: OVCAR8; experiment: MTT cytotoxicity, ovarian cancer cell line OVCAR8; assay type: cell-based, human
Description: (§2) Finally, a comparison study of the cytotoxicity of Re-Phen and phenformin in a panel of ovarian cancer cell lines by MTT assay after a 72 hour incubation period was conducted. Ovarian cells were seeded at 5000 cells/well in 96-well plates overnight, and treated with Re-Phen or phenformin in different concentrations (from 4.57×10^−4 mM to 1.0 mM in 3-fold increase) at 37° C. for 72 hours. Cell viability was measured using the MTT assay. The absorption at 590 nm was measured at microplate reader (SpectraMax, Molecular Device, San Diego, CA) to quantify cell numbers. The proportion of cells was normalized to that of untreated cells and expressed as mean±standard error of the mean (SEM) (n=5-6). The resulting reduced viability with half-maximal inhibitory concentration (IC50) values of mM were calculated by a sigmoidal dose-response (variable slope) curve-fitting using GraphPad Prism software. The data are shown in FIG. 19A (Re-Phen) and FIG. 19B (phenformin). […] In fact, Re-Phen is shown to display >2,000-fold and >5,000-fold higher cytotoxicity against OVACAR-8 and SKOV3 (Table 2) human ovarian cancer cell lines, respectively.

[4] = system: HeyA8; experiment: MTT cytotoxicity, ovarian cancer cell line HeyA8; assay type: cell-based
Description: as §2

[5] = system: PDAC cells (Kras*, MiaPaca-2); experiment: Annexin V/PI flow cytometry cell death; assay type: cell-based; details: 250 μM, 24 hours, Kras* and MiaPaca-2 cell lines
From the text: Vehicle (DMSO) treated cells were used as a control.
as §1

[6] = system: BXPC-3; experiment: MTT cytotoxicity, pancreatic cancer cell line BXPC-3; assay type: cell-based
Description: (§3) To determine cytotoxicity of Re-Phen and Phenformin, different cell lines were exposed to different concentrations of the compounds and their viabilities were followed over time. Pancreatic cells were seeded in 96-well plates (5000 cells/well) overnight, and treated with Re-Phen (FIG. 13A) or phenformin (FIG. 13B) in concentrations ranging from 4.57×10−4 mM to 1.0 mM at 37° C. for 72 h. Cell viability was measured using the MTT assay. The absorption at 590 nm was measured with a microplate reader (SpectraMax, Molecular Device, San Diego, CA) to quantify cell numbers. The proportion of cells was normalized to that of untreated cells and expressed as mean±standard error of the mean (SEM) (n=6). The half-maximal inhibitory concentration (IC50) values were calculated by a sigmoidal dose-response (variable slope) curve-fitting using GraphPad Prism software.

[7] = system: OVCAR4; experiment: MTT cytotoxicity, ovarian cancer cell line OVCAR4; assay type: cell-based
Description: as §2

[8] = system: A2789-cp20; experiment: MTT cytotoxicity, ovarian cancer cell line A2789-cp20; assay type: cell-based; details: 72 hours
Description: as §2

[9] = system: Kras*; experiment: MTT cytotoxicity, pancreatic cancer cell line Kras*; assay type: cell-based, murine; details: 72 h
Description: as §3

[10] = system: IRGOV-1; experiment: MTT cytotoxicity, ovarian cancer cell line IRGOV-1; assay type: cell-based; details: 72 hours
Description: as §2

[11] = log P from octanol and PBS pH 7.4; assay type: physicochemical
[12] = system: SKOV3; experiment: MTT cytotoxicity, ovarian cancer cell line SKOV3; assay type: cell-based, human
Description: as §2

[13] = system: PDAC cells; experiment: Glycolytic ratio, YSI metabolic analyzer; assay type: cell-based; details: 30 μM, 24 hours
Description: The glycolytic ratio was obtained using a YSI metabolic analyzer after treatments with phenformin (30 μM) or Re-Phen (30 μM) for 24 hours. Wells with culture media but without cells were used for baseline reading. Data are presented as mean±SD (n=3). *p<0.05; **p<0.01.
Both Re-Phen and phenformin altered the mitochondrial functions and metabolic state of PDAC cells. The fluorescent intensities for both monomeric forms (Ex/Em=490/525 nm) and J-aggregates (Ex/Em=540/590 nm) of JC-10 change upon mitochondrial membrane polarization. Thus, an increase in the ratio of fluorescence intensities measured at 525 nm (monomeric form) over 590 nm (aggregates) represents a decrease in mitochondrial membrane potential.

[14] = Re-Phen versus phenformin, Table 2

## N=C(N)NC(=N)NCCc1ccccc1.[C-]#[O+].[C-]#[O+].[C-]#[O+].[Re+] [Re-Phen]
[1]
  AMPK activation: activated AMPK
[2]
  cytotoxicity against normal cells: generally less cytotoxic than phenformin
[3]; MTT, 72 hours
  IC50: 110 µM
[3]; [14]
  fold higher cytotoxicity against OVACAR-8: > 2,000 fold
[4]; 72 hours
  IC50: 82 µM
[5]
  induction of cell death: more potent than phenformin
[6]; 72 h
  IC50: 340 µM
[7]; 72 hours
  IC50: 390 µM
[8]
  IC50: 260 µM
[9]
  IC50: 230 µM
[10]
  IC50: 420 µM
[11]; octanol and phosphate-buffered saline (PBS) at pH 7.4
  log P: 1.07±0.08
[12]; MTT, 72 hours
  IC50: 35 µM
[12]; [14]
  fold higher cytotoxicity against SKOV3: > 5,000 fold
[13]
  compensatory glycolysis (glycolytic ratio, lactate produced to glucose consumed): increased compensatory glycolysis

## [H]/N=C(/N)N/C(=N/[H])NCCc1ccccc1 [Phenformin, N-phenylethyl biguanide, reference compound]
[1]
  AMPK activation: activated AMPK
[4]; HEY A8, 72 hours
  IC50: 22 µM
[6]; Homo sapiens, BXPC-3, 72 h
  IC50: 1100 µM
[7]; Homo sapiens, OVCAR-4, 72 hours
  IC50: 2430 µM
[8]
  IC50: 100 µM
[9]; Mus musculus, Pancreatic cancer cell
  IC50: 750 µM
[10]
  IC50: 380 µM
[11]; pH 7.4
  logP: -0.72 ± 0.02
[13]
  compensatory glycolysis (glycolytic ratio, lactate produced to glucose consumed): increased compensatory glycolysis
